Data from patent US20250314644A1, “METHODS COMPRISING DETECTION OF ADP-HEPTOSE” (CHILDREN'S HOSPITAL MEDICAL CENTER, priority 2023, published 2025).

Test system: NF-κB in THP1 cells
Experiment: NF-κB signaling (immunoblot) and THP1-Blue NF-kB SEAP reporter
Format: cell-based, human
Protocol: Protein concentration was evaluated by bicinchoninic acid (BCA) assay (Pierce, Cat #23225). SDS sample buffer was added to the lysates and the proteins were separated by SDS-polyacrylamide gel electrophoresis, transferred to PVDF or nitrocellulose membranes (BIO-RAD, Cat #1620112), and analyzed by immunoblotting. […] Membranes were visualized using ECL Western Blotting Substrate (Pierce, #32106) or SuperSignal West Femto Substrate (Thermo Scientific, #34096), imaged on a BIO-RAD ChemiDoc Touch Imaging system and analyzed with Image lab software 6.0.1 (Biorad) or Image J (22930834).
THP1-Blue NF-kB SEAP reporter cells (Cat no. thp-nkfb, Invivogen) were grown at 20,000 cells per well (200 μl) in a 96-well plate with the indicated agonists and inhibitors for 24 hours. […] The absorbance was read at 630 nm for a final readout. For analysis, media absorbance was subtracted, experimental values were normalized to vehicle control, and triplicates were averaged.

Nc1ncnc2c1ncn2[C@@H]1O[C@H](COP(=O)(O)OP(=O)(O)O[C@@H]2O[C@H]([C@H](O)CO)[C@@H](O)[C@H](O)[C@@H]2O)[C@@H](O)[C@H]1O [ADP-heptose, ADP-D-glycero-β-D-manno-heptose]
NF-kB activation (TIFA-deficient THP1 cells): unable to activate NF-kB | canonical NF-κB signaling and transcriptional activation (human leukemic cells (THP1)): induce canonical NF-κB signaling and transcriptional activation
